Results published in ChEMBL document CHEMBL1201862, “PubChem BioAssay data set” (2004).
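Briefly, cells in 96-well plates were exposed to five compound concentrations for 48 h, and endpoints were estimated by linear interpolation. GI50 marks 50% less growth.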 Calls of active or inactive are those of the source. No stated cut-off is given here; in the data, active = GI50 up to about 1.1 µM and inactive = higher.

Experiments:
Assay in all cases: NCI tumour cell line growth inhibition, 48 h
HOP-62 = system: HOP-62
COLO 205 = system: COLO 205
SF-268 = system: SF-268
SR = system: SR
M14 = system: M14
SF-295 = system: SF-295
PC-3 = system: PC-3
CCRF-CEM = system: CCRF-CEM
HL-60 = system: HL-60
OVCAR-5 = system: OVCAR-5
Malme-3M = system: Malme-3M
NCI-H460 = system: NCI-H460
OVCAR-4 = system: OVCAR-4
EKVX = system: EKVX
RXF 393 = system: RXF 393
NCI-H23 = system: NCI-H23
HCC 2998 = system: HCC 2998
786-0 = system: 786-0

c1ccc(CCCCNCc2cc(CNCCCCc3ccccc3)cc(CNCCCCc3ccccc3)c2)cc1
GI50 (HOP-62): 1.75 µM (inactive)
GI50 (COLO 205): 0.366 µM (active)
GI50 (SF-268): 1.53 µM (inactive)
GI50 (SR): 0.216 µM (active)
GI50 (M14): 0.556 µM (active)
GI50 (SF-295): 1.81 µM (inactive)
GI50 (PC-3): 1.41 µM (inactive)
GI50 (CCRF-CEM): 0.211 µM (active)
GI50 (HL-60): 0.226 µM (active)
GI50 (OVCAR-5): 1.7 µM (inactive)
GI50 (Malme-3M): 1.76 µM (inactive)
GI50 (NCI-H460): 0.364 µM (active)
GI50 (OVCAR-4): 1.85 µM (inactive)
GI50 (EKVX): 1.64 µM (inactive)
GI50 (RXF 393): 1.31 µM (inactive)
GI50 (NCI-H23): 1.28 µM (inactive)
GI50 (HCC 2998): 0.149 µM (active)
GI50 (786-0): 1.31 µM (inactive)

C=CCOC(=O)N1[C@H]2C#C/C=C\C#C[C@]3(O)C(=O)C[C@H](C)[C@]24O[C@]43C2=CC(=O)C=CC21OC (stereo partly specified)
GI50 (HOP-62): 40.2 µM (inactive)
GI50 (COLO 205): 13.6 µM (inactive)
GI50 (SF-268): 50.6 µM (inactive)
GI50 (SR): 4.62 µM (inactive)
GI50 (M14): 20.4 µM (inactive)
GI50 (SF-295): 44 µM (inactive)
GI50 (PC-3): 30.6 µM (inactive)
GI50 (CCRF-CEM): 16.8 µM (inactive)
GI50 (HL-60): 30.8 µM (inactive)
GI50 (OVCAR-5): 35.2 µM (inactive)
GI50 (Malme-3M): 43.7 µM (inactive)
GI50 (NCI-H460): 13.9 µM (inactive)
GI50 (OVCAR-4): 26.4 µM (inactive)
GI50 (EKVX): 44 µM (inactive)
GI50 (RXF 393): 20.9 µM (inactive)
GI50 (NCI-H23): 27.2 µM (inactive)
GI50 (HCC 2998): 26.5 µM (inactive)
GI50 (786-0): 11.6 µM (inactive)

C#CC(O)/C=C/C(O)CCCC(O)CC#CC(O)C#CCCCCC(O)/C=C/CCCC(O)/C=C/CCCCCCCCCCCCCC(O)C(O)C#CC(=O)O (stereo unspecified)
GI50 (HOP-62): > 25 µM (inactive)
GI50 (COLO 205): > 25 µM (inactive)
GI50 (SF-268): > 25 µM (inactive)
GI50 (SR): > 25 µM (inactive)
GI50 (M14): > 25 µM (inactive)
GI50 (SF-295): > 25 µM (inactive)
GI50 (PC-3): > 25 µM (inactive)
GI50 (CCRF-CEM): > 25 µM (inactive)
GI50 (HL-60): > 25 µM (inactive)
GI50 (OVCAR-5): > 25 µM (inactive)
GI50 (Malme-3M): 23.2 µM (inactive)
GI50 (NCI-H460): > 25 µM (inactive)
GI50 (OVCAR-4): > 25 µM (inactive)
GI50 (EKVX): > 25 µM (inactive)
GI50 (RXF 393): > 25 µM (inactive)
GI50 (NCI-H23): > 25 µM (inactive)
GI50 (HCC 2998): > 25 µM (inactive)
GI50 (786-0): > 25 µM (inactive)

COc1ccc2c(C)cc(N/N=C/c3ccc(C)s3)nc2c1
GI50 (HOP-62): 18.7 µM (inactive)
GI50 (COLO 205): 2.81 µM (inactive)
GI50 (SF-268): 25.8 µM (inactive)
GI50 (SR): 5.18 µM (inactive)
GI50 (M14): 6.55 µM (inactive)
GI50 (SF-295): 9.62 µM (inactive)
GI50 (PC-3): 14.1 µM (inactive)
GI50 (CCRF-CEM): 5.37 µM (inactive)
GI50 (HL-60): 7.05 µM (inactive)
GI50 (OVCAR-5): 12.6 µM (inactive)
GI50 (Malme-3M): 17.7 µM (inactive)
GI50 (NCI-H460): 5.27 µM (inactive)
GI50 (OVCAR-4): 11.1 µM (inactive)
GI50 (EKVX): 5.4 µM (inactive)
GI50 (RXF 393): 14.3 µM (inactive)
GI50 (NCI-H23): 12.3 µM (inactive)
GI50 (HCC 2998): 6.11 µM (inactive)
GI50 (786-0): 5.89 µM (inactive)

Cc1cc(C)cc(Nc2cc(O)nc(O)n2)c1
GI50 (HOP-62): > 100 µM (inactive)
GI50 (COLO 205): > 100 µM (inactive)
GI50 (SF-268): > 100 µM (inactive)
GI50 (SR): > 100 µM (inactive)
GI50 (M14): > 100 µM (inactive)
GI50 (SF-295): > 100 µM (inactive)
GI50 (PC-3): > 100 µM (inactive)
GI50 (CCRF-CEM): > 100 µM (inactive)
GI50 (HL-60): > 100 µM (inactive)
GI50 (OVCAR-5): > 100 µM (inactive)
GI50 (Malme-3M): > 100 µM (inactive)
GI50 (NCI-H460): > 100 µM (inactive)
GI50 (OVCAR-4): > 100 µM (inactive)
GI50 (EKVX): > 100 µM (inactive)
GI50 (RXF 393): 90.4 µM (inactive)
GI50 (NCI-H23): > 100 µM (inactive)
GI50 (HCC 2998): > 100 µM (inactive)
GI50 (786-0): > 100 µM (inactive)

CC(N)/C(N)=N/O (stereo unspecified)
GI50 (HOP-62): > 100 µM (inactive)
GI50 (COLO 205): > 100 µM (inactive)
GI50 (SF-268): > 100 µM (inactive)
GI50 (SR): > 100 µM (inactive)
GI50 (M14): > 100 µM (inactive)
GI50 (SF-295): > 100 µM (inactive)
GI50 (PC-3): > 100 µM (inactive)
GI50 (CCRF-CEM): > 100 µM (inactive)
GI50 (HL-60): > 100 µM (inactive)
GI50 (OVCAR-5): > 100 µM (inactive)
GI50 (Malme-3M): > 100 µM (inactive)
GI50 (NCI-H460): > 100 µM (inactive)
GI50 (OVCAR-4): > 100 µM (inactive)
GI50 (EKVX): > 100 µM (inactive)
GI50 (RXF 393): > 100 µM (inactive)
GI50 (NCI-H23): > 100 µM (inactive)
GI50 (HCC 2998): > 100 µM (inactive)
GI50 (786-0): > 100 µM (inactive)

Cc1cccc2sc(NC(=O)c3cc([N+](=O)[O-])ccc3Cl)nc12
GI50 (HOP-62): 11.8 µM (inactive)
GI50 (COLO 205): 5.96 µM (inactive)
GI50 (SF-268): 3.13 µM (inactive)
GI50 (SR): > 100 µM (inactive)
GI50 (M14): 1.77 µM (inactive)
GI50 (SF-295): 4.82 µM (inactive)
GI50 (PC-3): 4.14 µM (inactive)
GI50 (CCRF-CEM): 0.0817 µM (active)
GI50 (HL-60): 72.9 µM (inactive)
GI50 (OVCAR-5): 5.87 µM (inactive)
GI50 (Malme-3M): 5.38 µM (inactive)
GI50 (NCI-H460): 3.96 µM (inactive)
GI50 (OVCAR-4): 8.51 µM (inactive)
GI50 (EKVX): 11.4 µM (inactive)
GI50 (RXF 393): 2.01 µM (inactive)
GI50 (NCI-H23): 2.79 µM (inactive)
GI50 (HCC 2998): 9.33 µM (inactive)
GI50 (786-0): 1.89 µM (inactive)
